Key:
human μ opiate receptor = biological target: T1, human μ opiate receptor (Homo sapiens, UniProt P35372); test: Affinity for the human μ opiate receptor ([3H]-naloxone displacement, CHO-K1 receptor membrane preparation, SPA); assay type: binding; conditions: test concentration of 1 μM
T1 construct: purchased PerkinElmer Life Sciences, Zaventem, Belgium RB-HOM; host or cells: CHO-K1 cells (membrane preparation)
How it was run: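 Readout is percent displacement of [3H]-naloxone (1 nmol/l) from human μ receptor in CHO-K1 membranes, measured at 1 μmol/l compound. Incubation runs 90 minutes at room temperature with WGA-SPA beads in Tris-HCl/BSA buffer; non-specific binding is defined with 100 μmol/l naloxone.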

[1] = biological target: T2, bradykinin 1 receptor (B1R) of the rat (Rattus norvegicus, UniProt P97583); test: Functional investigation on the rat bradykinin 1 receptor (B1R), Ca2+ FLIPR assay in CHO K1 rB1R cells; assay type: cell-based; conditions: B1R antagonism rat; test substance 10 μM; Ca2+ FLIPR, CHO K1 rB1R cells
T2 construct: expressed in transfected cells; host or cells: CHO K1 cells
T2 sequence (P97583 1-337): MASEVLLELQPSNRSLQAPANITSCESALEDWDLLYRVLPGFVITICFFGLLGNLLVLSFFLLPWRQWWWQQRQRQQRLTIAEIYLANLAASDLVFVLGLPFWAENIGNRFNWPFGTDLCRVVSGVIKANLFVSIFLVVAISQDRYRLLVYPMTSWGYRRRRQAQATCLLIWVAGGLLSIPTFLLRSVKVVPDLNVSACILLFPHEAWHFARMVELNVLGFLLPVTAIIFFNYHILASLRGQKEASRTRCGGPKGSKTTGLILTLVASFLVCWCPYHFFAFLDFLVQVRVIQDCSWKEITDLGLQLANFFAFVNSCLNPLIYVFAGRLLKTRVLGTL
How it was run: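 Stably transfected CHO K1 cells loaded with Fluo-4; FLIPR Ca2+ fluorescence peak (ex 488/em 540 nm). Compound added first (agonism vs Lys-Des-Arg9-bradykinin ≥50 nM human, Des-Arg9-bradykinin 10 μM rat), then after 10-20 min agonist at EC80; antagonism as % inhibition, IC50 from concentration series, n=2-3, N≥2.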

T1 sequence (P35372 whole entry): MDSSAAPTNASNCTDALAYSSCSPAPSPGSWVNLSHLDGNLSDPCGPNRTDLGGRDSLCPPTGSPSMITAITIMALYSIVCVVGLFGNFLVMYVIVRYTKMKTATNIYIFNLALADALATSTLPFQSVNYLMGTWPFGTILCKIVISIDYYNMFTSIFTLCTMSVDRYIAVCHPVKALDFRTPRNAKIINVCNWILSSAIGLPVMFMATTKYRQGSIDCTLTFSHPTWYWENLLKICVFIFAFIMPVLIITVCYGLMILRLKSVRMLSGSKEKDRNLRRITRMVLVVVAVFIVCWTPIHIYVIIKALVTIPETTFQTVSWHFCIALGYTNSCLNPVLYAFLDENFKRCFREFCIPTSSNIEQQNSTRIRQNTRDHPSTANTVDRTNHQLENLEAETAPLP

SMILES | μ (binding on the μ opioid receptor, % inhibition) (human μ opiate receptor) [%] | B1R Ant. r [10 μM] % Inhibition [1] [%]
CN(C)C(c1cccs1)C1CCC(NC(=O)COCCN(C)S(=O)(=O)c2ccc(OC(F)(F)F)cc2)CC1 (stereo not shown) [Example 282] | 74 | 20
COc1ccc(S(=O)(=O)N(C)CCOCC(=O)NCCC2CCC(C(c3cccc(F)c3)N(C)C)CC2)cc1OC (stereo not shown) [Example 293] | 75 | 2
COc1ccc(S(=O)(=O)N2CCCC2COCC(=O)NCC2CCC(C(c3ccc(Cl)cc3)N(C)C)CC2)cc1 (stereo not shown) [Example 351] | 63 | 34
COc1ccc(S(=O)(=O)N2CCCCC2COCC(=O)NCC2CCC(C(c3ccc(Cl)cc3)N(C)C)CC2)c(OC)c1 (stereo not shown) [Example 280] | 73 | 36
COc1ccc(S(=O)(=O)N2CCCCC2COCC(=O)NC2CCC(C(c3cccc(F)c3)N(C)C)CC2)c(OC)c1 (stereo not shown) [Example 322] | 70 | 6
CN(C)C(c1ccc(F)cc1)C1CCC(CNC(=O)COCCN(C)S(=O)(=O)c2c(Cl)cccc2Cl)CC1 (stereo not shown) [Example 334] | 66 | 83
COc1ccc(S(=O)(=O)N2CCC(OCC(=O)NC3CCC(C(c4cccc(F)c4)N(C)C)CC3)C2)cc1OC (stereo not shown) [Example 323] | 67 | 23
COc1cc(C)c(S(=O)(=O)N(C)CCOCC(=O)NCCC2CCC(C(c3ccc(F)cc3)N(C)C)CC2)c(C)c1C (stereo not shown) [Example 354] | 61 | 44
CN(C)C(c1ccc(Cl)cc1)C1CCC(CNC(=O)COCCN(C)S(=O)(=O)c2ccc(Cl)cc2)CC1 (stereo not shown) [Example 284] | 70 | 32
CN(C)C(c1ccc(F)cc1)C1CCC(NC(=O)COCC2CCCN2S(=O)(=O)c2ccc(Cl)c(Cl)c2)CC1 (stereo not shown) [Example 344] | 64 | 12
COc1ccc(S(=O)(=O)N2CCCCC2COCC(=O)NCCC2CCC(C(c3ccc(Cl)cc3)N(C)C)CC2)cc1 (stereo not shown) [Example 311] | 67 | 64
CN(C)C(c1ccc(F)cc1)C1CCC(CCNC(=O)COCCN(C)S(=O)(=O)c2c(Cl)cccc2Cl)CC1 (stereo not shown) [Example 285] | 69 | 75
COc1cc(C)c(S(=O)(=O)N2CCCC(OCC(=O)NC3CCC(C(c4cccc(F)c4)N(C)C)CC3)C2)c(C)c1C (stereo not shown) [Example 279] | 77 | 7
CN(C)C(c1ccc(F)cc1)C1CCC(CNC(=O)COC2CCCCC2N(C)S(=O)(=O)c2ccc(Cl)c(Cl)c2)CC1 (stereo not shown) [Example 359] | 60 | −4
Cc1cc(C)c(S(=O)(=O)N2CCC(OCC(=O)NC3CCC(C(c4ccc(F)cc4)N(C)C)CC3)C2)c(C)c1 (stereo not shown) [Example 332] | 58 | 32
COc1ccc(S(=O)(=O)N2CCCCC2COCC(=O)NCCC2CCC(C(c3cccc(F)c3)N(C)C)CC2)c(OC)c1 (stereo not shown) [Example 281] | 77 | 18
CN(C)C(c1ccc(Cl)cc1)C1CCC(CNC(=O)COCC2CCCN(S(=O)(=O)c3ccccc3)C2)CC1 (stereo not shown) [Example 294] | 63 | 32
COc1cc(C)c(S(=O)(=O)N(C)CCOCC(=O)NCC2CCC(C(c3ccc(Cl)cc3)N(C)C)CC2)c(C)c1 (stereo not shown) [Example 348] | 61 | 99
Cc1ccc(S(=O)(=O)N(C)CCOCC(=O)NCC2CCC(C(c3ccc(F)cc3)N(C)C)CC2)cc1 (stereo not shown) [Example 362] | 54 | 3

SMILES | μ (binding on the μ opioid receptor, % inhibition) (human μ opiate receptor) [%] | B1R Ant. r [10 μM] % Inhibition [1] [%]
CN(C)C(c1cccc(F)c1)C1CCC(CCNC(=O)COC2CCCN(S(=O)(=O)c3ccccc3)C2)CC1 (stereo not shown) [Example 326] | 67 | −6
COc1cc(C)c(S(=O)(=O)N(C)CCOCC(=O)NCC2CCC(C(c3ccc(Cl)cc3)N(C)C)CC2)c(C)c1C (stereo not shown) [Example 298] | 64 | 14
CN(C)C(c1ccc(F)cc1)C1CCC(CCNC(=O)COCC2CCCCN2S(=O)(=O)c2ccc(Cl)c(Cl)c2)CC1 (stereo not shown) [Example 337] | 64 | −23
COc1ccc(S(=O)(=O)N2CCCC2COCC(=O)NCC2CCC(C(c3cccc(F)c3)N(C)C)CC2)cc1 (stereo not shown) [Example 313] | 71 | 31
CN(C)C(c1cccc(F)c1)C1CCC(CCNC(=O)COCCN2CCN(S(=O)(=O)c3ccccc3)CC2)CC1 (stereo not shown) [Example 325] | 68 | 6
CN(C)C(c1cccc(F)c1)C1CCC(CNC(=O)COC2CCN(S(=O)(=O)c3ccccc3)C2)CC1 (stereo not shown) [Example 355] | 66 | 28
CN(C)C(c1cccc(F)c1)C1CCC(CCNC(=O)COCC2CCCN(S(=O)(=O)c3ccccc3)C2)CC1 (stereo not shown) [Example 295] | 71 | 44
CN(C)C(c1ccc(F)cc1)C1CCC(NC(=O)COCCN(Cc2ccccc2)S(=O)(=O)c2ccccc2)CC1 (stereo not shown) [Example 336] | 59 | 8
CN(C)C(c1cccc(F)c1)C1CCC(CNC(=O)COCCN2CCN(S(=O)(=O)c3ccccc3)CC2)CC1 (stereo not shown) [Example 308] | 60 | 17
CN(C)C(c1ccc(F)cc1)C1CCC(CNC(=O)COCCN(Cc2ccccc2)S(=O)(=O)c2ccccc2)CC1 (stereo not shown) [Example 342] | 57 | −20
CN(C)C(c1cccc(F)c1)C1CCC(CNC(=O)COCCN(C)S(=O)(=O)c2cccc(C(F)(F)F)c2)CC1 (stereo not shown) [Example 302] | 75 | 0
CN(C)C(c1ccccc1)C1CCC(CNC(=O)COC2CCN(S(=O)(=O)c3ccccc3)CC2)CC1 (stereo not shown) [Example 300] | 66 | 7
CN(C)C(c1ccc(Cl)cc1)C1CCC(CNC(=O)COCCN(C)S(=O)(=O)c2cccc(C(F)(F)F)c2)CC1 (stereo not shown) [Example 314] | 64 | 13
CCN(CCOCC(=O)NCC1CCC(C(c2ccc(F)cc2)N(C)C)CC1)S(=O)(=O)c1c(C)cc(OC)c(C)c1C (stereo not shown) [Example 327] | 67 | 68
CN(C)C(c1ccc(F)cc1)C1CCC(NC(=O)COCCN(C)S(=O)(=O)c2ccc(OC(F)(F)F)cc2)CC1 (stereo not shown) [Example 361] | 59 | 31
CN(C)C(c1ccc(Cl)cc1)C1CCC(CNC(=O)COCCN(Cc2ccccc2)S(=O)(=O)c2ccccc2)CC1 (stereo not shown) [Example 343] | 62 | −15
COc1cc(C)c(S(=O)(=O)N(CCOCC(=O)NCCC2CCC(C(c3cccc(F)c3)N(C)C)CC2)Cc2ccccc2)c(C)c1 (stereo not shown) [Example 358] | 71 | 27
CN(C)C(c1ccc(F)cc1)C1CCC(NC(=O)COC2CCN(S(=O)(=O)c3cccc(C(F)(F)F)c3)C2)CC1 (stereo not shown) [Example 330] | 54 | 16
COc1cc(C)c(S(=O)(=O)N2CCN(CCOCC(=O)NCCC3CCC(C(c4ccc(Cl)cc4)N(C)C)CC3)CC2)c(C)c1C (stereo not shown) [Example 320] | 65 | −8
